Results: patent EP0314302A2, “Herbicidal o-carbomethoxy-sulfonylureas” (E.I. DU PONT DE NEMOURS AND COMPANY, priority 1987, dated 1989)

Assays:
Sandbur [1] = assay: Test 11 citrus pots, preemergence to the weeds; type: in vivo, Cenchrus echinatus; conditions: Preemergence 32 g/ha; 0.25% X-77 surfactant; scale 0-100
Description: (§1) Budded citrus seedlings were planted in 30-liter plastic pots which were also seeded with sandbur, guineagrass, narrowleaf panicum, common ragweed, yellow nutsedge, purple nutsedge and bindweed. Compound I was applied preemergence and postemergence to the weeds. Treatments were sprayed to simulate the trunk-to-trunk herbicide application method used in some citrus groves. The compound was also applied postemergence to weeds grown in windowsill flats. The flats were filled with planting medium and seeded with morningglory (Ipomoea spp.). purple nutsedge (Cyperus rotundus), pigweed (Amaranthus spp.), bindweed (Convolvulus spp.), narrowleaf panicum (Panicum maximum), common ragweed (Ambrosia artemisiifolia), sandbur (Cenchrus echinatus), itchgrass (Rottboellia exaltata), johnsongrass (Sorghum halepense), guineagrass (Panicum maximum), smooth crabgrass (Digitaria ischaemum), broadleaf signalgrass (Brachiaria platyphylla), bermudagrass (Cynodon dactylon), goosegrass (Eleusine indica), large crabgrass (Digitaria sanguinalis) and yellow nutsedge (Cyperus esculentus).
(§2) The compound was formulated and sprayed with 0.25% X-77 surfactant in water. Plants were visually rated 21 and 29 days after treatment and compared with appropriate controls. Injury ratings were based on the scale of 0 to 100, where 0 indicates no effect, 20 indicates minimum effect and 100 indicates complete control. […]

Pigweed = assay: Test 11 windowsill flats, postemergence; type: in vivo, Amaranthus spp.; conditions: Postemergence 32 g/ha, 0.25% X-77 surfactant, scale 0-100
Description: as §1, §2

Mikania cordata = assay: Test 4 plantation crop weeds, postemergence; type: in vivo; conditions: scale 0-100
Source text: (§3) The object of this test was to evaluate the efficacy of the compound of this invention on weeds that infest some plantation crops at different growth stages of the weeds. Asystasia intrusa, Mikania cordata, goldenrod Solidago spp, Boston fern Nephrolepis exalata, and lalang Imparata cylindrica were planted in 15-cm plastic pots. Plants were sprayed postemergence with Compound I in a non-phytotoxic solvent. The Asystasia plants ranged in growth from 4 leaves to 9 leaves and very branched, Mikania had 6 leaves to vining, the goldenrod was branching and the Boston fern was growing vigorously. The degree of weed control was visually rated 20 to 24 days after treatment (DAT). Control ratings are based on the scale of 0 to 100 where 0 = no effect, 20 = minimal control and 100 = complete control. Variations in the results of the tests could be due to the fact that the tests were run at different times of the year or due to the stage of growth of the weeds.

Asystasia intrusa = assay: Test 4 plantation crop weeds, postemergence; type: in vivo; conditions: scale 0-100; for Control Rating 24 DAT: Table 4, at 4-leaf stage
Source text: as §3

Nephrolepis exalata = assay: Test 4 plantation crop weeds, postemergence; type: in vivo; conditions: Table 4, scale 0-100
Source text: as §3

Johnsongrass = assay: Test 11 windowsill flats, postemergence; type: in vivo, Sorghum halepense; conditions: Postemergence 32 g/ha, 0.25% X-77 surfactant, scale 0-100
Description: as §1, §2

Yellow nutsedge [2] = assay: Test 11 citrus pots, postemergence to the weeds; type: in vivo, Cyperus esculentus; conditions: Postemergence 32 g/ha, 0.25% X-77 surfactant, scale 0-100
Description: as §1, §2

coffee = assay: Test 6 effect of surfactants, postemergence; type: in vivo, Coffea spp; conditions: addition of a surfactant
Source text: The object of this test was to evaluate the effect of surfactants and plant growth stage on the efficacy of the compound of this invention. Plastic windowsill pots were filled with planting medium and seeded with yellow nutsedge (Cyperus esculentus), large crabgrass (Digitaria sanguinalis), goosegrass (Elsusine indica), bermudagrass (Cynodon dactylon), broadleaf signalgrass (Brachiara platyphalla), smooth crabgrass (Digitaria ischaemum), guinea grass (Panicum maximum) and johnsongrass (Sorghum halapense). Coffee (Coffea spp) plants with 2 to 4 branches were included in one test.
Plants were treated postemergence with Compound I formulated with different surfactants or a non-phytotoxic carrier made up of acetone-humectant-water-surfactant.

Russian thistle = assay: Test 7 postemergence; type: in vivo, Salsola spp; conditions: scale 0-100
Description: Individual 11.4-cm plastic pots filled with planting medium were seeded with rape, wild radish (Raphanus raphanistruna). tansy mustard (Descurainia pinnata), ball mustard (Neslia paniculata), black mustard (Brassica nigra), yellow mustard, brown mustard, lentils, safflower, flax, sunflower, peanut, vetch, alfalfa, field bean, pea, violet (Viola spp), Kochia (Kochia spp), Russian thistle (Salsola spp), Matricaria spp, groundsel (Senecio spp), shepherdspurse (Capsella bursa-pastoris), nightshade (Solanum spp), sowthistle (Sonchus spp), sugar beet, wheat, "Bonanza" barley and "Morex" barley, Kentucky bluegrass (Poa pratensis), red clover (Trifolium pratense), dandelion (Taraxacum spp) and buckhorn plantain (Plantago lanceolata).
Plants were treated postemergence with the compound formulated with a non-phytotoxic carrier. Plants were visually rated 18 days after treatment (DAT). Response ratings were based on the scale of 0 to 100 where 0 = no effect, 20 = minimal injury and 100 = complete control.

Yellow nutsedge [3] = assay: Test 11 citrus pots, preemergence to the weeds; type: in vivo, Cyperus esculentus; conditions: Preemergence 32 g/ha; 0.25% X-77 surfactant; scale 0-100
Description: as §1, §2

Bahia grass = assay: Test 9 postemergence; type: in vivo, bahiagrass; conditions: 16 g/ha, scale 0-100
Description: Plastic windowsill pots containing planting medium were seeded with bahiagrass, bindweed (Convolvulus spp), guinea grass (Panicum maximum), large crabgrass (Digitaria sanguinalis) and pigweed (Amaranthus spp). Individual 15-cm plastic pots contained sandbur (Cenchrus echinatus), Mikania cordata, Boston fern (Nephrolepis exalata), quackgrass (Agropyron repens), elephantgrass (Pennisetum purpureum) and sowthistle (Sonchus spp) plants.
Plants were treated postemergence with Compound I formulated in a non-phytotoxic solvent. Plants were visually rated 22 days after treatment (DAT). Injury and weed control ratings were based on the scale of 0 to 100 where 0 = no effect, 20 = minimal control and 100 = complete control.

Sandbur [4] = assay: Test 11 citrus pots, postemergence to the weeds; type: in vivo, Cenchrus echinatus; conditions: Postemergence 32 g/ha, 0.25% X-77 surfactant, scale 0-100
Description: as §1, §2

[5] = Table 6, profusely branching, 8 g/ha
[6] = Table 6, profusely branching, 16 g/ha
[7] = Table 6, profusely branching, 32 g/ha
[8] = Table 6, profusely branching, 64 g/ha

Question: Which Injury ratings (Sandbur [1]) does the source give for `COC(=O)c1cccnc1S(=O)(=O)NC(=O)Nc1nc(OC)cc(OC)n1` [Compound I, 2-[[(4,6-dimethoxypyrimidin-2-yl)aminocarbonyl]aminosulfonyl]-3-pyridinecarboxylic acid, methyl ester] here?
Answer: 100

Question: And the Injury ratings (Pigweed)?
Answer: 100

Question: What about the “Control Rating 20 DAT” value (Mikania cordata; Table 5, at 6 to 8-leaf stage, 8 g/ha) of the same compound?
Answer: 0

Question: What about the “Control Rating 20 DAT” value (Mikania cordata; Table 5, at 6 to 8-leaf stage, 16 g/ha) of the same compound?
Answer: 0

Question: And the “Control Rating 20 DAT” value (Mikania cordata; Table 5, at 6 to 8-leaf stage, 32 g/ha)?
Answer: 0

Question: What about the “Control Rating 20 DAT” value (Mikania cordata; Table 5, at 6 to 8-leaf stage, 64 g/ha) of the same compound?
Answer: 30

Question: What about the “Control Rating 20 DAT” value (Mikania cordata; [5]) of the same compound?
Answer: 0

Question: What about the “Control Rating 20 DAT” value (Mikania cordata; [6]) of the same compound?
Answer: 0

Question: And the “Control Rating 20 DAT” value (Mikania cordata; [7])?
Answer: 0

Question: What about the “Control Rating 20 DAT” value (Mikania cordata; [8]) of the same compound?
Answer: 0

Question: And the “Control Rating 22 DAT” value (Mikania cordata; Table 7, vining and profusely branching, 8 g/ha)?
Answer: 0

Question: What about the “Control Rating 22 DAT” value (Mikania cordata; Table 7, vining and profusely branching, 16 g/ha) of the same compound?
Answer: 0

Question: What about the “Control Rating 22 DAT” value (Mikania cordata; Table 7, vining and profusely branching, 32 g/ha) of the same compound?
Answer: 0

Question: What about the “Control Rating 22 DAT” value (Mikania cordata; Table 7, vining and profusely branching, 64 g/ha) of the same compound?
Answer: 20

Question: And the “Control Rating 22 DAT” value (Mikania cordata; Table 8, 16 g/ha)?
Answer: 0

Question: What about the “Control Rating 22 DAT” value (Mikania cordata; Table 8, 32 g/ha) of the same compound?
Answer: 0

Question: And the “Control Rating 22 DAT” value (Mikania cordata; Table 8, 64 g/ha)?
Answer: 20

Question: And the “Control Rating 24 DAT” value (Asystasia intrusa; 4 g/ha)?
Answer: 20

Question: What about the “Control Rating 24 DAT” value (Asystasia intrusa; 8 g/ha) of the same compound?
Answer: 30

Question: And the “Control Rating 24 DAT” value (Asystasia intrusa; 16 g/ha)?
Answer: 40

Question: What about the “Control Rating 24 DAT” value (Asystasia intrusa; 32 g/ha) of the same compound?
Answer: 50

Question: What about the “Control Rating 24 DAT” value (Asystasia intrusa; 64 g/ha) of the same compound?
Answer: 60

Question: What about the “Control Rating 20 DAT” value (Asystasia intrusa; Table 5, at 6 to 9-leaf stage, 8 g/ha) of the same compound?
Answer: 0

Question: What about the “Control Rating 20 DAT” value (Asystasia intrusa; Table 5, at 6 to 9-leaf stage, 16 g/ha) of the same compound?
Answer: 60

Question: What about the “Control Rating 20 DAT” value (Asystasia intrusa; Table 5, at 6 to 9-leaf stage, 32 g/ha) of the same compound?
Answer: 90

Question: What about the “Control Rating 20 DAT” value (Asystasia intrusa; Table 5, at 6 to 9-leaf stage, 64 g/ha) of the same compound?
Answer: 100

Question: What about the “Control Rating 20 DAT” value (Asystasia intrusa; [5]) of the same compound?
Answer: 0

Question: What about the “Control Rating 20 DAT” value (Asystasia intrusa; [6]) of the same compound?
Answer: 0

Question: What about the “Control Rating 20 DAT” value (Asystasia intrusa; [7]) of the same compound?
Answer: 0

Question: And the “Control Rating 20 DAT” value (Asystasia intrusa; [8])?
Answer: 30

Question: And the “Control Rating 24 DAT” value (Nephrolepis exalata; 4 g/ha)?
Answer: 0

Question: And the “Control Rating 24 DAT” value (Nephrolepis exalata; 8 g/ha)?
Answer: 0

Question: And the “Control Rating 24 DAT” value (Nephrolepis exalata; 16 g/ha)?
Answer: 40

Question: And the “Control Rating 24 DAT” value (Nephrolepis exalata; 32 g/ha)?
Answer: 60

Question: And the “Control Rating 24 DAT” value (Nephrolepis exalata; 64 g/ha)?
Answer: 80

Question: What about the Injury ratings (Johnsongrass) of the same compound?
Answer: 100

Question: What about the Injury ratings (Yellow nutsedge [2]) of the same compound?
Answer: 100

Question: And the safety to coffee (coffee)?
Answer: maintaining safety to coffee

Question: What about the “Plant Injury Rating 18 DAT” value (Russian thistle; 16 g/ha) of the same compound?
Answer: 100

Question: And the “Plant Injury Rating 18 DAT” value (Russian thistle; 32 g/ha)?
Answer: 100

Question: What about the Injury ratings (Yellow nutsedge [3]) of the same compound?
Answer: 100

Question: What about the “Plant Injury Rating 22 DAT” value (Bahia grass) of the same compound?
Answer: 40

Question: And the Injury ratings (Sandbur [4])?
Answer: 100
